# Assay results as given in ChEMBL document CHEMBL1201862, “PubChem BioAssay data set” (2004).
# Active and inactive are the calls of the source.
# Legend:
# [1] = target: T1, Rac GTPase-activating protein 1 (Homo sapiens, UniProt Q9H0H5); assay: MgcRacGAP GTPase-activating activity inhibitors, confirmation, biochemical, ADP Hunter fluorescence, primary and confirmatory (AID 624330); type: functional
# T1 sequence (Q9H0H5 whole entry): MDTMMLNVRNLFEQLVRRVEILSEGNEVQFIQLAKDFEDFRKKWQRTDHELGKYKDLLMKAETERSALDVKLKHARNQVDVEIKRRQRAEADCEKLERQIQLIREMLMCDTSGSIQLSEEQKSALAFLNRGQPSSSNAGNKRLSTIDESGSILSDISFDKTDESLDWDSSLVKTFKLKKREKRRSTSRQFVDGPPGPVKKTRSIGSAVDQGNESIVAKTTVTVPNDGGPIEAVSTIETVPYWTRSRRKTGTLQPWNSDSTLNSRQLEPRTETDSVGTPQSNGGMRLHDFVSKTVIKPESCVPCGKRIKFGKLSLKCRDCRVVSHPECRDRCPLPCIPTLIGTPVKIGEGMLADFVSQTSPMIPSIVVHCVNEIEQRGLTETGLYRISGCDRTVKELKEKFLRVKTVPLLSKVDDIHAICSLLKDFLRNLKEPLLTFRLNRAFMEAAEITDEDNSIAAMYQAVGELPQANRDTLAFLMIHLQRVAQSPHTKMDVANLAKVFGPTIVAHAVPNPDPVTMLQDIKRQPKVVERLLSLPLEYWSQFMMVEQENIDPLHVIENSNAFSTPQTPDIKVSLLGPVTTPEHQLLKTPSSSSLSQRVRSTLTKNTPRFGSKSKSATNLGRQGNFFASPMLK
# [2] = target: Induced myeloid leukemia cell differentiation protein Mcl-1 (Homo sapiens, UniProt Q07820); type: functional
# [3] = growth suppression of PTEN-null colon cells, dose response, cell-based, HCT116 PTEN knockout (AID 1047); type: functional;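 also: HCT116 colon tumor cells with PTEN knocked out; cells exposed to compound for 60 hours before readout; potency for loss of cell viability measured by luminescence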
# [4] = target: T2, Polyadenylate-binding protein 1 (Homo sapiens, UniProt P11940); assay: PABP1 MLLE–PAM2 binding inhibitor potency, dose response, biochemical, fluorescence polarization, FITC-PAM2 peptide (AID 602259); type: functional; conditions: read-out: IC50_Mean
# [5] = target: T2, Polyadenylate-binding protein 1; assay: PABP1 MLLE–PAM2 interaction inhibitors, dose response, miRNA deadenylation inhibitor project, biochemical, fluorescence polarization, Cy5-PAM2 peptide, secondary (AID 602260); type: functional; conditions: read-out: IC50_Mean
# [6] = C. albicans growth with fluconazole, confirmation, fluorescence, retest (AID 2467); type: functional, cell-based
# [7] = NIH-3T3 fibroblast cytotoxicity, dose response, cytotoxicity control, cell-based, fluorescence, Alamar Blue, secondary assay (AID 2327); type: functional;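 also: NIH-3T3 mouse fibroblasts cultured with fluconazole at 8 µg/mL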
# [8] = THP-1 cell cytotoxicity, dose response, cytotoxicity control for non-replicating M. tuberculosis project (AID 489025); type: functional
# cells = type: functional
# Aminopeptidase N = target: T3, Aminopeptidase N (Plasmodium falciparum FcB1/Columbia, UniProt O96935); assay: P. falciparum M1AAP inhibitors, biochemical, fluorogenic H-Leu-NHMec substrate, 1536-well (AID 1445); parameters: species or system Plasmodium falciparum 3D7, 3D7
# T3 sequence (O96935 whole entry): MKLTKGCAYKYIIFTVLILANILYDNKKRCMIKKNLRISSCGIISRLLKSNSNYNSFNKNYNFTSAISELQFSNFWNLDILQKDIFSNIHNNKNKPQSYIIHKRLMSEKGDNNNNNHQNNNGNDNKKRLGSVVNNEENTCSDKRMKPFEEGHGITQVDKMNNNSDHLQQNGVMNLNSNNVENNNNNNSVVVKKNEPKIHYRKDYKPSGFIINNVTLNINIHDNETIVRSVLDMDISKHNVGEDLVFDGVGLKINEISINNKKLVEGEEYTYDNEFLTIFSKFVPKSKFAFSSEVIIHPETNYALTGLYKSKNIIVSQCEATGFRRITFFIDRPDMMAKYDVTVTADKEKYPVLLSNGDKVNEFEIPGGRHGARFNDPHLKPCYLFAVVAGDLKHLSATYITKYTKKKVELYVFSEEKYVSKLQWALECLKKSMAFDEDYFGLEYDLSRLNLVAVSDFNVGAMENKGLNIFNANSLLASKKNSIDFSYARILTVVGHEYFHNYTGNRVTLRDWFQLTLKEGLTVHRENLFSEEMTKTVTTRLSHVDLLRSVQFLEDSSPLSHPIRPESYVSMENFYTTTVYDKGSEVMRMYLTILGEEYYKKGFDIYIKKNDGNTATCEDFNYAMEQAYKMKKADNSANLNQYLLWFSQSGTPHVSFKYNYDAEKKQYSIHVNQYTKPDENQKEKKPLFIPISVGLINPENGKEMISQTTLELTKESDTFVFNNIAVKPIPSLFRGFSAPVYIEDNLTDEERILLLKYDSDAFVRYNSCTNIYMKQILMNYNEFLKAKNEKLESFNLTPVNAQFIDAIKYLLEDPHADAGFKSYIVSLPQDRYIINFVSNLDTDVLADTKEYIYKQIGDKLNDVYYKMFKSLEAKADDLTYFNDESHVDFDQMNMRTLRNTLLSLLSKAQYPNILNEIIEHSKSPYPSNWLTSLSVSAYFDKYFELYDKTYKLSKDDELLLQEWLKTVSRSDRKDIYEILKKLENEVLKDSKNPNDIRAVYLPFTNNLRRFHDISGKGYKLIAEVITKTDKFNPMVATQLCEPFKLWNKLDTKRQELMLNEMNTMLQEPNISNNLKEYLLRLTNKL
# [9] = growth suppression of beta-catenin-knockout colon cells, dose response, cell-based, HCT116, human colon tumor (AID 1045); type: functional;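 also: HCT116 colon tumor cells with beta catenin knocked out; cells exposed to compound for 60 hours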
# [10] = target: T4, High affinity choline transporter 1 (Homo sapiens, UniProt Q9GZV3); assay: CHT inhibitors, dose response, cell-based, 5-point CRC, membrane potential dye (AID 504840); type: functional
# T4 sequence (Q9GZV3 whole entry): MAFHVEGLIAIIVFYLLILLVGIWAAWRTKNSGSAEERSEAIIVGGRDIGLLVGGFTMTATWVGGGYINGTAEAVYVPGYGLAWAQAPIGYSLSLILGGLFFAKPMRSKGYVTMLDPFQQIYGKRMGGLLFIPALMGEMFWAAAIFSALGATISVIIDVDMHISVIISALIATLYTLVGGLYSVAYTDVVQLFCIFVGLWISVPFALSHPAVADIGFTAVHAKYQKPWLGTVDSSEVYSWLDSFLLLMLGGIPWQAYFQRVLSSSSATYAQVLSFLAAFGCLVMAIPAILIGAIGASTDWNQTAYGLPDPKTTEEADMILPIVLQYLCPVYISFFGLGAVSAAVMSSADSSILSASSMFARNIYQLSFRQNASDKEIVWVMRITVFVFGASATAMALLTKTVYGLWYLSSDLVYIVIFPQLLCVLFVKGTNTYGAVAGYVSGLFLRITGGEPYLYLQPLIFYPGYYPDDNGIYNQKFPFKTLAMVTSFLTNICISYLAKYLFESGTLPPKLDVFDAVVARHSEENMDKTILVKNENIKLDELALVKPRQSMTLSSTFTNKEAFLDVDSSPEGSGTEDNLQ
# Protein skinhead-1 = target: T5, Protein skinhead-1 (Caenorhabditis elegans, UniProt P34707); type: functional
# T5 sequence (P34707 whole entry): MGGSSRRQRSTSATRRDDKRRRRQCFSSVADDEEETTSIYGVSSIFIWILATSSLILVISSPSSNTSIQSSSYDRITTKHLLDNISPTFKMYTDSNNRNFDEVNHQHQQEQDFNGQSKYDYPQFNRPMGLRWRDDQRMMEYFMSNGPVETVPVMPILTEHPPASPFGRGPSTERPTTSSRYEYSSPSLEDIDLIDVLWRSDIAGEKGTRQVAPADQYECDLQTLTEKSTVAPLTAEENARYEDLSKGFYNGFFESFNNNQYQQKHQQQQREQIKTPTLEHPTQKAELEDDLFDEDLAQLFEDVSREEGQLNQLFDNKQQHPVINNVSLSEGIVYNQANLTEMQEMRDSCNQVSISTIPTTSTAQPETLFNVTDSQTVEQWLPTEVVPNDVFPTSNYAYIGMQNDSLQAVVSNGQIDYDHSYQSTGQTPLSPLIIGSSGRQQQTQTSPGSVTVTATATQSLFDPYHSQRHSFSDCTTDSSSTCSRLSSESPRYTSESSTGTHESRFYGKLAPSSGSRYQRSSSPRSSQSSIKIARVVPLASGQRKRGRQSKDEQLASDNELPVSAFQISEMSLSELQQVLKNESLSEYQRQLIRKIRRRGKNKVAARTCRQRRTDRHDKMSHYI
# HeLa = assay: HeLa cell cytotoxicity, dose response, cytotoxicity control for MITF activator project, CellTiter-Glo luminescence, cherry-pick samples (AID 540259); type: functional, cell-based; conditions: Homo sapiens
# [11] = inhibitors of HIV Env-driven cell fusion, dose response, cherry-pick (AID 652057); type: functional, cell-based
# [12] = ZM109 Env clade C HIV-1 fusion inhibitors, dose response, HeLa effector, CEM target cells, luciferase, cherry-pick (AID 652058); type: functional, cell-based
# Fatty acid synthase [13] = target: T6, Fatty acid synthase (Homo sapiens, UniProt P49327); assay: FAS thioesterase domain inhibitors, dose response, biochemical, endpoint fluorescence intensity, uHTS hits (AID 624327); type: functional;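 also: fluorescence from hydrolysis of an O-methyl fluorescein acyl ester substrate by the enzyme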
# Fatty acid synthase [14] = target: T6, Fatty acid synthase; assay: FAS thioesterase domain inhibitors, dose response, biochemical, kinetic fluorescence intensity (AID 624326); type: functional;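 also: rate of fluorescence rise from hydrolysis of a fluorogenic O-methyl fluorescein ester substrate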
# [15] = A549 cell cytotoxicity, dose response, cytotoxicity control, plate reader, cherry-pick, antagonist series (AID 743412); type: functional, cell-based
# Induced myeloid leukemia cell differentiation protein Mcl-1, sequence (Q07820 whole entry): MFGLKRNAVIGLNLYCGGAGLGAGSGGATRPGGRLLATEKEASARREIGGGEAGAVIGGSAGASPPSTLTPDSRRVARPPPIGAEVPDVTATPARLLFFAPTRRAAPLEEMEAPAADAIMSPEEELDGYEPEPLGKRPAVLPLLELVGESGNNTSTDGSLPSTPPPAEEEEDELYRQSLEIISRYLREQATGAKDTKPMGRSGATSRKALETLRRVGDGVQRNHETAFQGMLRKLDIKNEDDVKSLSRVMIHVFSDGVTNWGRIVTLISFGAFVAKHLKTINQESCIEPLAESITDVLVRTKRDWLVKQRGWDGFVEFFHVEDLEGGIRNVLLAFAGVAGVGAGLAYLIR
# T2 sequence (P11940 whole entry): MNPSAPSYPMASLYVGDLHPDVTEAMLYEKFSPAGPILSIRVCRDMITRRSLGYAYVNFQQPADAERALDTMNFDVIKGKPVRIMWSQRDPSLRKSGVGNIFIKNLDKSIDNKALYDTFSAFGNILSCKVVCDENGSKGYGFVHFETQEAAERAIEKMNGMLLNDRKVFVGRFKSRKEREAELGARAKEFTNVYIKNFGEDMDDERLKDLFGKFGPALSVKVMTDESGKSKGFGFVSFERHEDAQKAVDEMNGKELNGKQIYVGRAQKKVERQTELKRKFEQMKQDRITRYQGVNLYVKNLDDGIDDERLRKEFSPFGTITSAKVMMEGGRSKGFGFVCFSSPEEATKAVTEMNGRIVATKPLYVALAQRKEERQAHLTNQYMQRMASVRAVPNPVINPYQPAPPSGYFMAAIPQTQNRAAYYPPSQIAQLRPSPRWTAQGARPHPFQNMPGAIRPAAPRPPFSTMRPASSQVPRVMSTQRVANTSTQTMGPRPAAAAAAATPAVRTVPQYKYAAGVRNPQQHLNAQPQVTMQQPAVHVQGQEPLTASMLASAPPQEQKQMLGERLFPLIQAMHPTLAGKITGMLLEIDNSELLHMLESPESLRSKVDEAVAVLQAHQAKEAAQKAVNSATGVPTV
# T6 sequence (P49327 whole entry, the tested form may be a part): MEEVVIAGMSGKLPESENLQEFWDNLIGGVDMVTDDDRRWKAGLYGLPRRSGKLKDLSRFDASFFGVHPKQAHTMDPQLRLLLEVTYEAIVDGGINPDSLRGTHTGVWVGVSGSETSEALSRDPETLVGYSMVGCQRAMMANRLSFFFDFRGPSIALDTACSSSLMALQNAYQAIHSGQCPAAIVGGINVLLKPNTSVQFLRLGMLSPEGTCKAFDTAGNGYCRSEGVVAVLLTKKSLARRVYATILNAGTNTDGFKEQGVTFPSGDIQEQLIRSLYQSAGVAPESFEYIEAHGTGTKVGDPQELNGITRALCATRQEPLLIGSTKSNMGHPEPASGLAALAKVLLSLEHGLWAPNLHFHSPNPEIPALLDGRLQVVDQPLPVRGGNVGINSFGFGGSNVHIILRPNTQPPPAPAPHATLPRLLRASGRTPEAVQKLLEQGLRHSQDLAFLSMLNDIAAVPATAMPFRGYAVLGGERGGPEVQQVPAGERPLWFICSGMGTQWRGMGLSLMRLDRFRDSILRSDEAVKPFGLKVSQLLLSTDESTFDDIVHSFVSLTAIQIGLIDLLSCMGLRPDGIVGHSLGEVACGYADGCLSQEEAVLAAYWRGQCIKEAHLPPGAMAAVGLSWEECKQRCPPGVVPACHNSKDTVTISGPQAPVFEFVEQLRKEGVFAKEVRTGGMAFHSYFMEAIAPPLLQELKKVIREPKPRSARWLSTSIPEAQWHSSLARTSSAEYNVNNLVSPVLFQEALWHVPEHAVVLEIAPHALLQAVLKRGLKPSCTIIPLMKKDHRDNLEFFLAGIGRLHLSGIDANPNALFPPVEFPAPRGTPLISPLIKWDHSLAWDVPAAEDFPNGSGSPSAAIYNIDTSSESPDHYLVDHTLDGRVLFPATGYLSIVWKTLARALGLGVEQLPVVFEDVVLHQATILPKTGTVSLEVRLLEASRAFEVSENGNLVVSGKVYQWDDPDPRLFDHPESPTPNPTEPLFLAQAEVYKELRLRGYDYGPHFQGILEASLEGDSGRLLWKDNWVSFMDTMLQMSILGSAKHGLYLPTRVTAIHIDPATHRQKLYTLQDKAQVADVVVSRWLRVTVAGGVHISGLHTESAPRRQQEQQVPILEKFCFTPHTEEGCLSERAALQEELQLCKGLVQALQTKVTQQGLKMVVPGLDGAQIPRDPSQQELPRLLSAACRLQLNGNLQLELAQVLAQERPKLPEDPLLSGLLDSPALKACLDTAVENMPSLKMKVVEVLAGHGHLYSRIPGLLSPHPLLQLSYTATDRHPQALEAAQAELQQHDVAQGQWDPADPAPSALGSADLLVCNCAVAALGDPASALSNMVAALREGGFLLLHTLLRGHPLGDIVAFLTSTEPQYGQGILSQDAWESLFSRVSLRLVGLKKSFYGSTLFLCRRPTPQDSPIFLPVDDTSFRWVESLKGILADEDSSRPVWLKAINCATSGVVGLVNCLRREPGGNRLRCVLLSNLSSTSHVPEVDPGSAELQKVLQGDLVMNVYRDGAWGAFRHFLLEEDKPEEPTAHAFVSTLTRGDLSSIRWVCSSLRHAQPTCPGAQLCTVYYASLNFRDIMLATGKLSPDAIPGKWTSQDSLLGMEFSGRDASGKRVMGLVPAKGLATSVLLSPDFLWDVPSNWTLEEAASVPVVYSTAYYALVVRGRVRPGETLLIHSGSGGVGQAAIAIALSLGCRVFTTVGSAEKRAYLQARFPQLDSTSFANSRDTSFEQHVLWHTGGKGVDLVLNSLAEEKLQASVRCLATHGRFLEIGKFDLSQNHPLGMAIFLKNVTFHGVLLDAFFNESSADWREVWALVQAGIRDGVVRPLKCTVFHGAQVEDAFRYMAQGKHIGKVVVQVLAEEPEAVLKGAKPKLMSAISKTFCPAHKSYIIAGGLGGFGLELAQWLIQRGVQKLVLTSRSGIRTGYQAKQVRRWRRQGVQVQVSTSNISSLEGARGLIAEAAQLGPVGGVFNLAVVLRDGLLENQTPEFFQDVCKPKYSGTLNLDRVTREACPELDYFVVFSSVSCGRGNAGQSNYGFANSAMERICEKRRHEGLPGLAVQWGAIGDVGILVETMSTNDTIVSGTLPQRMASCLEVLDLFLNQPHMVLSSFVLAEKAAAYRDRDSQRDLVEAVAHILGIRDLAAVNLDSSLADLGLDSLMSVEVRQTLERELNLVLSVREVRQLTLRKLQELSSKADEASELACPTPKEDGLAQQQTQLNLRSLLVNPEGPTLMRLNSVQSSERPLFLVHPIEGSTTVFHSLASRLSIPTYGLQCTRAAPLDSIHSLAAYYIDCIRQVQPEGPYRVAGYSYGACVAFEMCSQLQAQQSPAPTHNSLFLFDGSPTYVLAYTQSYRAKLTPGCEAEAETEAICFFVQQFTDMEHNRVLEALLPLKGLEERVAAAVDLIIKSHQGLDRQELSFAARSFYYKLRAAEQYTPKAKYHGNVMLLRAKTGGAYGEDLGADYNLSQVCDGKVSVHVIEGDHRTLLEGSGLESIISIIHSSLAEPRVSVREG
smiles,measurement,setting,value
CCc1nc(Nc2ccc(N3CCN(C(C)=O)CC3)cc2)c2oc3ccccc3c2n1,IC50,[1],36.8 µM (active)
same,IC50,[2],5.67 µM (not active)
COC(=O)c1ccc(Oc2nc(C(N)=O)cc(-c3ccccc3)n2)cc1,EC50,[3],29.9 µM (active)
CCOc1ccccc1C(=O)N1CCN=C1SCc1cccnc1,IC50,[4],> 66 µM (inactive)
same,IC50,[5],> 66 µM (inactive)
CC1CCCCC1NC(=O)CN1C(=O)c2cccc(N)c2C1=O (configuration not stated),IC50,[4],35.5 µM (inactive)
same,IC50,[5],> 66 µM (inactive)
CSC(=Nc1ccc(Cl)cc1)NS(=O)(=O)c1cccs1,EC50,[6],1.15 µM (active)
same,EC50,[7],> 150 µM (inactive)
Nc1ccc2nc3c(c(Cl)c2c1)CCCC3,CC50,[8],2.79 µM (active)
same,IC50,cells,13.7 µM (active)
O=C(Cc1ccc(F)cc1)N/N=C/c1ccc(-c2ccc(Cl)c(C(=O)O)c2)o1,IC50,Aminopeptidase N,22.9 µM (active)
COc1ccccc1C(=O)/C=C/c1ccc(N2CCCCC2)c([N+](=O)[O-])c1,EC50,[9],4.48 µM (active)
same,EC50,[3],5.52 µM (active)
CC1=C(C(=O)Nc2cccc(C(=O)NC3CCCCC3C)c2)SCCO1 (configuration not stated),IC50,[10],13.2 µM (active)
CSc1ccccc1NC(=O)Nc1ccc(Cl)cc1,EC50,[9],46.5 µM (active)
same,EC50,[3],68.5 µM (active)
COc1ccc(C(C(=O)NC2CCCCC2)N(CC2CCCO2)C(=O)C2COc3ccccc3O2)cc1OC (configuration not stated),EC50,[9],19.5 µM (active)
same,EC50,[3],12.7 µM (active)
O=C(CSc1n[nH]c(-c2ccccc2)n1)Nc1ncc(Br)cc1Br,IC50,[10],14.5 µM (active)
Cc1cccc(C)c1OCc1cc(C(=O)N2CCN(C3CCCC3)CC2)no1,IC50,[10],19.1 µM (active)
same,IC50,Protein skinhead-1,> 100 µM (inactive)
CN1CCC(N(C)c2nc(-c3ccc([N+](=O)[O-])cc3)nc3ccccc23)CC1,EC50,[9],4.29 µM (active)
same,IC50,[2],3.99 µM (active)
same,EC50,[3],5.17 µM (active)
CN(C(=S)NC(=O)c1ccccc1)c1c(N)n(Cc2ccccc2)c(=O)[nH]c1=O,IC50,[4],> 66 µM (inactive)
same,IC50,[5],> 66 µM (inactive)
C/C(=N\N=C(N)N)c1ccc(Cl)cc1Cl,IC50,[10],14.8 µM (active)
COc1ccc(-c2ccc3ccccc3n2)cc1OC,AC50,HeLa,46.8 µM (active)
O=C(NCc1ccccc1)[C@@H]1CCCN1C(=O)[C@@H]1CCCN1C(=O)c1cccc2ccccc12,AC50,[11],54.2 µM (active)
same,AC50,[12],36 µM (active)
COC(=O)CN1C(=O)C2(C(C#N)=C(N)Oc3[nH]nc(-c4cccs4)c32)c2ccccc21 (configuration not stated),IC50,Aminopeptidase N,36.7 µM (active)
Cc1cc(OC(C)C(=O)Nc2ccc(S(=O)(=O)Nc3onc(C)c3C)cc2)cc(C)c1Cl (configuration not stated),IC50,[10],3.98 µM (active)
COCC(C)n1c(SCC(=O)Nc2nccs2)nc2ccccc2c1=O (configuration not stated),IC50,[4],> 66 µM (inactive)
same,IC50,[5],> 66 µM (inactive)
COc1ccc(-c2nn(CCC(=O)O)cc2/C=C2\SC(N)=NC2=O)cc1OC,IC50,[2],4.63 µM (active)
COC(=O)C(C)N1C(=O)S/C(=C/c2cc(C)n(C(C)C)c2C)C1=O (configuration not stated),AC50,HeLa,52.9 µM (active)
COC(=O)[C@@]1(C)[C@H]2C(=O)N(Cc3ccccc3)C(=O)[C@H]2[C@H]2CN=C(SCC(=O)c3ccccc3)N21,IC50,[4],> 66 µM (inactive)
same,IC50,[5],> 66 µM (inactive)
C=CCC[C@@H](Cc1ccc(F)cc1)C(=O)OC[C@H](Cc1c[nH]c2ccccc12)NC(=O)[C@H](CC=C)CC(=O)NCCO,IC50,Fatty acid synthase [13],10.9 µM (active)
same,IC50,Fatty acid synthase [14],6.03 µM (active)
Cc1ccc(S(=O)(=O)N(C)C[C@H]2Oc3cc(Br)ccc3S(=O)(=O)N([C@H](C)CO)C[C@H]2C)cc1,AC50,[15],33.6 µM (active)
CC(C)OCCCNC(=O)c1sc(=S)n(C)c1N,IC50,[4],> 66 µM (inactive)
same,IC50,[5],> 66 µM (inactive)
c1ccc2sc(SCc3ccc(-c4nnco4)cc3)nc2c1,CC50,[8],> 40 µM (active)
same,IC50,cells,27.4 µM (active)
same,IC50,Protein skinhead-1,32.7 µM (active)
